Consider 57 compounds from patent US20040137389A1, “Heat-developable light-sensitive material” (priority 2002, published 2004).

What is called pKa is the pH at which an ionisable group is half protonated.

Structures are written as SMILES.

A short description of one series: Retention of absorbance at 415 nm after heat development, Examples 3 and 4. The conditions noted are these: A/B×100 (after/before heat development), development 24 seconds, grain size 0.12 μm, Example 3. The method, then:
(§1) Each sample was thermally developed with Fuji Medical Dry Laser Imager FM-DPL Model in which the temperatures of four panel heaters were set at 112° C., 118° C., 120° C. and 120° C., respectively and which the overall development time was set at 24 seconds.
Using a spectral photometer U-4100 (manufactured by Hitachi) equipped with an integrating sphere, the spectral absorbance of each sample was measured. The change rate of the absorbance at 415 nm of each sample before heat development and that after heat development was measured. Apart from the above samples, silver iodide-free sample was prepared, and the absorbance thereof at 415 nm was used as a base standard. The retention of absorbance of each sample was computed according to the formula mentioned below. The smaller the retention, the larger the reduction in absorption, which is preferable.
Retention of Absorbance (%)=A/B×100
(§2) A=(absorbance of a sample after heat development)−(absorbance of a silver iodide-free sample after heat development)
(§3) B=(absorbance of the sample before heat development)−(absorbance of a silver iodide-free sample before heat development)
With `CC(C)c1ccc2cnncc2c1` [6-isopropylphthalazine], the “Silver Iodide Absorption Retention (%)” value was “more effective than phthalazine”. For the compound `c1ccc2cnncc2c1` [phthalazine, Phthalazine], the “Silver Iodide Absorption Retention (%)” value is reported as “effective for reducing the absorption intensity”.

The next series in a line: Difference between light absorption intensity before and after heat development (absorbance at 415 nm), Examples 1 and 2. The conditions noted are these: A/B×100 (after/before heat development, silver iodide-free sample as base), development 24 seconds, Example 1. The method, then:
as §1
Using a spectral photometer U-4100 (manufactured by Hitachi) equipped with an integrating sphere, the spectral absorbance of each sample was measured. […] The change rate of the absorbance at 415 nm of each of samples 11 to 20 before heat development and that after heat development was measured. Apart from the above samples, silver iodide-free sample was prepared, and the absorbance thereof at 415 nm was used as a base standard. The absorbance reduction rate of each sample was computed according to the formula mentioned below.
Absorbance reduction rate (%)=A/B×100
as §2, §3
Take `CC(C)c1ccc2cnncc2c1` [6-isopropylphthalazine]: the “Absorbance Change Rate (%)” value is recorded as “may lower the absorption intensity”.

The nature of another series: Measurement of acid dissociation constant pKa by potentiometric titration. The series is classed as physicochemical. The conditions noted are these: compound of formula (1) or (2); tetrahydrofuran/water (3/2), 25° C.; Table 2. The method, then:
Using an automatic potentiometric titration meter, Kyoto Electronic Industry's AT-420, the acid dissociation constant (pKa) of the conjugate acid of the compound of formula (1) in a mixed solution of tetrahydrofuran and water (3/2) was measured at 25° C.
Using an automatic potentiometric titration meter, Kyoto Electronic Industry's AT-420, the acid dissociation constant (pKa) of the conjugate acid of the silver iodide complex-forming agent in a mixed solution of tetrahydrofuran and water (3/2) was measured at 25° C.
As for `O=C(Nc1ccncc1)c1ccccc1` [Sample F-325], the “pKa of Conjugate Acid” value was found to be 4.2.

In the case of `Cc1nnc(C)c(C)c1C` [Sample F-404], the “pKa of Conjugate Acid” value turned out to be 5.4. The same measure, in the same setting: then `c1ccc(-c2ccnnc2)cc1` [Sample F-405], with 3.6.

The series is the same for the next values; noted with them: conjugate acid of the silver iodide complex-forming agent; tetrahydrofuran/water (3/2), 25° C.; Table 5.
`O=C(Nc1ccncc1)c1ccccc1` [Sample F-325] displayed a pKa of 4.2. The compound `Cc1nnc(C)c(C)c1C` [Sample F-404] showed a pKa of 5.4. On the same count and under the same terms, then `c1ccc(-c2ccnnc2)cc1` [Sample F-405], with 3.6.

The same series, now with this note: conjugate acid of the silver iodide complex-forming agent; tetrahydrofuran/water (3/2), 25° C.; Table 6.
`O=C(Nc1ccncc1)c1ccccc1` [Sample F-325] gave a pKa of 4.2.

The series is the same for the next values; noted with them: conjugate acid of the silver iodide complex-forming agent; tetrahydrofuran/water (3/2), 25° C.; Table 8.
In the case of `O=C(Nc1ccncc1)c1ccccc1` [Sample F-325], the pKa is recorded as 4.2. For `Cc1nnc(C)c(C)c1C` [Sample F-404], the pKa was 5.4. `c1ccc(-c2ccnnc2)cc1` [Sample F-405] had a pKa of 3.6.

Staying with this series, now noted: conjugate acid; tetrahydrofuran/water (3/2), 25° C.; Table 1.
For `O=C(Nc1ccncc1)c1ccccc1` [Sample F-325], the “Compound of Formula (1) or (2) pKa” value was found to be 4.2.

The series is the same for the next values; noted with them: conjugate acid; tetrahydrofuran/water (3/2), 25° C.; Table 3.
On to `O=C(Nc1ccncc1)c1ccccc1` [Sample F-325], for which the “Silver Iodide Complex-forming Agent pKa” value came out at 4.2.

Still in this series, the particulars now being: tetrahydrofuran/water (3/2) mixed solution, compound of formula (1) or (2), 25° C., Table 2, read-out: pKa of Conjugate Acid.
Take `c1cc2cnncc2s1` [Sample F-421]: the pKa is 4.2.

Experiment in a further series: not given
The settings on record: Hammett's substituent constants of Y11 to Y14; constants from Chemical Review, 1991, Vol. 91; cited from earlier work.
For `Nc1ccc2c(=O)[nH]ncc2c1` [Sample I-60], the “Total Sum of σ p” value is reported as −0.66.

For the compound `COc1cccc2c(=O)[nH]ncc12` [Sample I-26], the “Total Sum of σ p” value is listed as −0.27. `CCCc1ccc2c(=O)[nH]ncc2c1` [Sample I-9]: the “Total Sum of σ p” value is given as −0.13. Take `Cc1cccc2c(=O)[nH]ncc12` [Sample I-1]: the “Total Sum of σ p” value was −0.17. In the case of `Cc1cc2c(=O)[nH]ncc2c(C)c1C` [Sample I-20], the “Total Sum of σ p” value is given as −0.51. For the compound `O=c1[nH]ncc2ccc(Oc3ccccc3)cc12` [Sample I-48], the “Total Sum of σ p” value is listed as −0.03. On to `O=c1[nH]ncc2cc(-c3ccccc3)ccc12` [Sample I-15], for which the “Total Sum of σ p” value is listed as −0.01. As for `CCCOc1ccc2c(=O)[nH]ncc2c1` [Sample I-35], the “Total Sum of σ p” value is −0.32. In the case of `CC(C)c1ccc2cn[nH]c(=O)c2c1` [Sample I-22], the “Total Sum of σ p” value is −0.15.

Take `CCCOc1ccc2cn[nH]c(=O)c2c1` [Sample I-36]: the “Total Sum of σ p” value is recorded as −0.32.

For the compound `CCCc1ccc2cn[nH]c(=O)c2c1` [Sample I-11], the “Total Sum of σ p” value is given as −0.13.

In the case of `CC(=O)Nc1ccc2c(=O)[nH]ncc2c1` [Sample I-61], the “Total Sum of σ p” value is on record as 0.00.

For `CCCOc1cccc2c(=O)[nH]ncc12` [Sample I-34], the “Total Sum of σ p” value was −0.32.

Regarding `CC(C)Oc1ccc2c(=O)[nH]ncc2c1` [Sample I-38], the “Total Sum of σ p” value is recorded as −0.33. Consider `CC(C)c1ccc2c(=O)[nH]ncc2c1` [Sample I-13], for which the “Total Sum of σ p” value was −0.15.

Consider `Cc1ccc2c(=O)[nH]ncc2c1` [Sample I-2], for which the “Total Sum of σ p” value is −0.17. Regarding `COc1ccc2c(=O)[nH]ncc2c1` [Sample I-27], the “Total Sum of σ p” value is −0.27.

On to `CN(C)c1ccc2cn[nH]c(=O)c2c1` [Sample I-74], for which the “Total Sum of σ p” value was −0.83. As for `CCc1ccc2cn[nH]c(=O)c2c1` [Sample I-7], the “Total Sum of σ p” value was −0.15. Consider `CCc1cccc2c(=O)[nH]ncc12` [Sample I-5], for which the “Total Sum of σ p” value is on record as −0.15. Take `CCOc1cccc2cn[nH]c(=O)c12` [Sample I-33]: the “Total Sum of σ p” value was −0.24. For the compound `CCCCOc1ccc2c(=O)[nH]ncc2c1` [Sample I-39], the “Total Sum of σ p” value is reported as −0.34. With `O=c1[nH]ncc2cc(NS(=O)(=O)c3ccccc3)ccc12` [Sample I-65], the “Total Sum of σ p” value was 0.01. Consider `CC(C)Cc1ccc2cn[nH]c(=O)c2c1` [Sample I-25], for which the “Total Sum of σ p” value is −0.12.

Take `O=c1[nH]ncc2cc(Oc3ccccc3)ccc12` [Sample I-47]: the “Total Sum of σ p” value is reported as −0.03.

In the case of `CCOc1ccc2cn[nH]c(=O)c2c1` [Sample I-32], the “Total Sum of σ p” value was −0.24.

For `CCCCc1ccc2cn[nH]c(=O)c2c1` [Sample I-23], the “Total Sum of σ p” value is −0.16.

With `Cc1cc2cn[nH]c(=O)c2cc1C` [Sample I-18], the “Total Sum of σ p” value is given as −0.34. As to `Cc1cccc2cn[nH]c(=O)c12` [Sample I-4], the “Total Sum of σ p” value was −0.17.

As to `COc1ccc2c(=O)[nH]ncc2c1OC` [Sample I-41], the “Total Sum of σ p” value was −0.54.

On to `CCC(C)c1ccc2cn[nH]c(=O)c2c1` (stereo not shown) [Sample I-24], for which the “Total Sum of σ p” value is reported as −0.12. Consider `COc1cc2c(=O)[nH]ncc2c(OC)c1OC` [Sample I-42], for which the “Total Sum of σ p” value was −0.81.

With `CC(C)(C)c1ccc2c(=O)[nH]ncc2c1` [Sample I-17], the “Total Sum of σ p” value is reported as −0.20. Take `COc1ccc2cn[nH]c(=O)c2c1` [Sample I-28]: the “Total Sum of σ p” value is on record as −0.27. `O=C(Nc1ccc2c(=O)[nH]ncc2c1)c1ccccc1` [Sample I-62]: the “Total Sum of σ p” value was −0.19.

As for `CCc1ccc2c(=O)[nH]ncc2c1` [Sample I-6], the “Total Sum of σ p” value is reported as −0.15. For `CC(C)Cc1ccc2c(=O)[nH]ncc2c1` [Sample I-16], the “Total Sum of σ p” value is given as −0.12. Consider `CCCc1cccc2cn[nH]c(=O)c12` [Sample I-12], for which the “Total Sum of σ p” value is reported as −0.13.

Consider `CCOc1cccc2c(=O)[nH]ncc12` [Sample I-30], for which the “Total Sum of σ p” value is −0.24. Turning to `CCN(CC)c1ccc2c(=O)[nH]ncc2c1` [Sample I-59], the “Total Sum of σ p” value is −0.72.

Take `CCOc1ccc2c(=O)[nH]ncc2c1` [Sample I-31]: the “Total Sum of σ p” value was −0.24. On to `CCc1cccc2cn[nH]c(=O)c12` [Sample I-8], for which the “Total Sum of σ p” value is −0.15. As to `CCCc1cccc2c(=O)[nH]ncc12` [Sample I-10], the “Total Sum of σ p” value is recorded as −0.13. For `CCCCc1ccc2c(=O)[nH]ncc2c1` [Sample I-14], the “Total Sum of σ p” value is −0.16.

Consider `COc1cc2cn[nH]c(=O)c2cc1OC` [Sample I-40], for which the “Total Sum of σ p” value is recorded as −0.54.

In the case of `CCc1cc2cn[nH]c(=O)c2cc1C` [Sample I-21], the “Total Sum of σ p” value is given as −0.32.

As for `Cc1ccc2cn[nH]c(=O)c2c1` [Sample I-3], the “Total Sum of σ p” value was −0.17. Consider `CCCOc1cccc2cn[nH]c(=O)c12` [Sample I-37], for which the “Total Sum of σ p” value was −0.32. Consider `CC(=O)Oc1ccc2cn[nH]c(=O)c2c1` [Sample I-69], for which the “Total Sum of σ p” value was 0.31. For `COc1cccc2cn[nH]c(=O)c12` [Sample I-29], the “Total Sum of σ p” value is given as −0.27. Consider `Cc1ccc2c(=O)[nH]ncc2c1C` [Sample I-19], for which the “Total Sum of σ p” value is on record as −0.34.
